Laboratory results as given in patent publication US9624288B2, “Engineered receptors and their use” (University of Pittsburgh—Of the Commonwealth System of …, priority 2012, dated 2017).

Biological target: T1, EGRAFY mutant (R91A, F188Y; SEQ ID NO: 15) (Dickeya chrysanthemi, UniProt P0C7B7, F187Y/INS163G/R91A)
T1 construct: expressed in transfected cells; host or cells: Xenopus laevis oocytes
Assay: Two-electrode voltage clamp, amine agonist activation of the EGRAFY mutant in oocytes
Type: cell-based, Erwinia chrysanthemi / human
Procedure: For pH measurements, 10 mM MES was added. […] Non-linear regressions were performed using Prism software (Graphpad). […] (FIG. 2).

## CCCN [propylamine]
  EC50: 1900 ± 200 nM
